Experimental findings from patent US20090324509A1, “INSECTICIDAL COMPOSITION” (LIVIE BIOPESTICIDES LIMITED, priority 2006, published 2009) are described below.

Type in all cases: in vivo
Series [1] relates to Deer Tick (Ixodes ricinus). The experiment in a line: Potter tower spray bioassay on adult arthropods, mortality. The settings on record: 1.0 ml/pot, adults, room temperature; % of negative control. The method, then: (§1) The IGR's Methoprene and Diflubenzuron were sources as WHO standard preparations at 20 mg/l technical from WHO, Geneva, and used as positive controls or mixtures (50:50) with 5.0% p-cymene.
(§2) Laboratory colonies of the cat flea (Ctenocephalides felis) and the Deer Tick (Ixodes ricinus) were used in bioassays undertaken at room temperature.
(§3) Bioassays consisted of plastic pots with a netting cover holding batches of 10 adult insects of each species being placed under a potter tower which then sprayed a fine particulate aerosol of even rate. Application rates were always 1.0 ml/pot which is sufficient to wet the inner surface without leaving free liquid residues. After exposure to the treatment or a 5% ethanol control, arthropods were then transferred to a clean plastic holding pot and held at room temperature for 3 days with mortality scored after 24 & 72 hours. Mortality was calculated as % of negative control.

The subject of series [2] is cat flea (Ctenocephalides felis). Described as above. The settings on record: 1.0 ml/pot, adults, room temperature; % of negative control. The method, then: as §1, §2, §3
The test system of series [3] is a range of pests including Musca domestica, Periplaneta Americana, Blatella germanica and others. Nature of the series: Tests of insecticidal activity of p-cymene against a range of pests. As to conditions: 15 listed pest species.

Structures are written as SMILES.

On to `Cc1ccc(C(C)C)cc1` [p-cymene], for which, in series [1], the 24 hours mortality was 28% and the 72 hours mortality is listed as 55%. In series [2], this molecule registered a 24 hours mortality of 76% and a 72 hours mortality of 88%. For the same molecule, the insecticidal activity entry in series [3] is given as “broad spectrum insecticidal activity”.
